The results in this text go back to patent EP0417790B1, “S-triazolo[3,4-i]purine derivatives” (Kyowa Hakko Kogyo Co., Ltd., priority 1989, dated 1991).

For data set [1], the system named is Wistar male rats. In words: Diuretic activity. It is filed as in vivo. The note with it: Rattus norvegicus, po, 25 mg/kg orally, urine taken for 6 hours. The procedure:
Wistar male rats weighing 150 to 300 g were used after fasting for 18 hours. […] The test was performed using 3 groups per test compound, and each group consists of 3 animals. The urine was metered by a measuring cylinder and electrolytes (Na^+ and K^+) in the urine were analyzed by flame photometer (model […]: Hitachi Ltd.). Parameters in Table 3 are represented by relative value for control.

In data set [2] the test system is male dd-mice. In words: Acute toxicity. The format is in vivo. The note with it: Minimum lethal dose, oral, mortality observed for seven days. The procedure: The compounds were orally administrated to male dd-mice weighing 20 ± 1 g. Minimum lethal dose (MLD) was determined by observing the mortality for seven days after the administration.
In data set [3] the test system is trachea. In words: Passive Schultz-Dale reaction (broncho-dilatory effect) on isolated tracheal strips. To be noted: Cavia porcellus; 50% relaxation of antigen (EWA, 1 µg/ml)-contracted tracheal strips of passively sensitized guinea pigs. The procedure: Guinea pigs were passively sensitized as follows. Hartley male guinea pigs weighing 350 to 500 g were injected intraperitoneally with rabbit anti-egg albumin (EWA) serum prepared by the method of Koda et al. [Folia pharmacol., Japon 66, 237, (1970)]. After 24 hours, the guinea pigs were stunned and exsanguinated, and then trachea was excised. The zig-zag strips of the trachea were prepared by the method of Emmerson and Mackay [J. Pharm. Pharmacol., 31, 798, (1979)]. The strips were suspended in Krebs-Henseleit solution at 37°C under aeration of a mixed gas of 95% oxygen and 5% carbon dioxide, and incubated for one hour. Antigen (EWA) was then introduced in the solution (final concentration; 1 µg/ml), and the contraction was measured by isotonictransducer (TD-112s, made by Nihon Kohden K.K., Japan) and recorded on a recorder (Type 3066, made by Yokogawa-Hokushin Denki, K.K. Japan). After the contraction curves reached plateau the compounds were successively added in order to get cumulative concentration-relaxation curves. Concentration of 50% relaxation rate (IC50) was calculated from the regression line, which was obtained from cumulative concentration-relaxation curves.

Data set [4] has as its system Hartley male guinea pigs. In words: Experimental asthma (collapse time after antigen aerosol). The format is in vivo. To be noted: 1 hour before 1.5% EWA aerosol, n=3-10 mean±S.E.M., control 254 ± 18. On the procedure: Guinea pigs were passively sensitized as follows. Hartley male guinea pigs weighing 350 to 500 g were intraperitoneally injected with 1 ml of rabbit anti-egg alubmin (EWA) serum prepared by the method of Koda et al. [Folia pharmacol., Japon, 66, 237 (1970)]. The animals were treated with intraperitoneal injection of diphenhydramine (20 mg/kg) and propranolol (5 mg/kg), 30 minutes before administration of test compounds. 17 hours after the sensitization, the test compounds (50 mg/kg or 5 mg/kg) or saline (control) were orally administrated to sensitized animals. After one hour from the administration of the test compounds, the guinea pigs were placed in plastic observation box and were exposed to an aerosal antigen of 1.5% EWA.
The time until the onset of respiratory distress-like symptom [collapse time (second)] was measured as a result of experimental asthma.

For data set [5], the system named is male dd mice. In words: Inhibition of platelet activating factor (PAF)-induced mortality. To be noted: Mus musculus, minimum effective dose, oral, 1 hour before 40 µg/kg PAF i.v., mortality 2 hours after PAF, read-out: PAF-induced mortality MED. The format is in vivo. The procedure:
The experiment was performed by a minor modification of method of Carlson et al. [Agents and Actions, 21, 379 (1987)]. Groups each consisting of 10 male dd mice (weighing 28 to 32 g) were used, and 100 mg/kg of test compound or a saline (control) was orally administrated. One hour after the administration of test compound, 40 µg/kg of PAF (manufactured by Avanti Polar Lipids Co., Ltd.) was intravenously administered. Two hours after PAF injection, the mortality rate of the animals was observed. […]

Data set [6] has as its system mice. In words: Scopolamine-induced amnesia, step through passive avoidance. It is filed as in vivo. To be noted: scopolamine 0.5 mg/kg i.p., mean ± S.E.M., controls 40.9±8.1 (Compound 41), 37.0±6.2 (Compound 51). On the procedure:
Acquisition trial was performed in a manner similar to Experiment (f). Amnestic treatment was performed by intraperitoneal administration of scopolamine (0.5 mg/kg), 30 minutes prior to the acquisition trial. The test trial was performed 24 hours after the acquisition trial and its latency was determined as in Experiment (f).
Preparation of administrated test compound was performed in a manner similar to Experiment (f). Test compound and the saline were orally administered 60 minutes before the acquisition trial, respectively.

[7] abbreviates: relative value for control (1.00), read-out: Na^+/K^+.
Setting [8] is: relative value for control (100), read-out: Excretion of K^+.
Setting [9] is: relative value for control (100), read-out: Excretion of Na^+.
[10] abbreviates: relative value for control (100), read-out: Urine volume.

Where two headings read alike, the source gives them in different places.

Consider `CCCn1c(=O)n2c(-c3ccncc3)nnc2c2c1ncn2C` [Compound 3, 6,9-Dihydro-9-methyl-6-n-propyl-3-(4-pyridyl)-5H-1,2,4-triazolo[3,4-i]purin-5-one], for which the response vs control in vivo at 25 mg/kg in data set [1] (setting [7]) amounted to 109%; in data set [1] (setting [8]) it was 196%; in data set [1] (setting [9]), 224%; in data set [1] (setting [10]), 274%. In data set [2], this molecule showed an MLD of 100 mg/kg. The IC50 (commonly the midpoint of a concentration-inhibition curve) in data set [3] is 0.032 µM. Also, the “Experimental asthma Collapse time” value in data set [4] (50 mg/kg orally) came out at 422 ± 130 s.
For `CCCn1c(=O)n2c(-c3cccnc3)nnc2c2c1ncn2C` [Compound 4, 6,9-Dihydro-9-methyl-6-n-propyl-3-(3-pyridyl)-5H-1,2,4-triazolo[3,4-i]purin-5-one], the response vs control in vivo at 25 mg/kg in data set [1] (setting [7]) worked out at 125%; in data set [1] (setting [8]), 134%; in data set [1] (setting [9]), 167%; in data set [1] (setting [10]), 177%. This molecule also came in with an MLD in data set [2] of 200 mg/kg. For the same molecule, in data set [3], the IC50 amounted to 7.7 µM. Moreover, the “Experimental asthma Collapse time” value in data set [4] (50 mg/kg orally) amounted to 358 ± 65 s.
As to `CCCn1c(=O)n2c(-c3ccc(Cl)cc3)nnc2c2c1ncn2C` [Compound 12, 3-(4-Chlorophenyl)-6,9-dihydro-9-methyl-6-n-propyl-5H-1,2,4-triazolo[3,4-i]purin-5-one], the response vs control in vivo at 25 mg/kg in data set [1] (setting [7]) turned out to be 142%; in data set [1] (setting [8]), 129%; in data set [1] (setting [9]) it was 183%; in data set [1] (setting [10]) it was 198%. Also, the minimal effective dose in data set [5] amounted to 100 mg/kg. The MLD in data set [2] is on record as above 300 mg/kg. Besides, the IC50 in data set [3] is 26 µM. Moreover, the “Experimental asthma Collapse time” value in data set [4] (5 mg/kg orally) was 399 ± 55 s.
For the molecule `CCCn1c(=O)n2c(C)nnc2c2[nH]cnc21` [Compound 25, 6,9-Dihydro-3-methyl-6-n-propyl-5H-1,2,4-triazolo[3,4-i]-purin-5-one], the response vs control in vivo at 25 mg/kg in data set [1] (setting [7]) is 163%; in data set [1] (setting [8]) it was 119%; in data set [1] (setting [9]), 193%; in data set [1] (setting [10]) it was 161%. Also, the minimal effective dose in data set [5] was 100 mg/kg. The MLD in data set [2] was determined as 100 mg/kg. Besides, the IC50 in data set [3] was found to be 0.42 µM. Moreover, the “Experimental asthma Collapse time” value in data set [4] (50 mg/kg orally) came out at 590 ± 9.8 s.
Regarding `CCCn1c(=O)n2c(-c3ccncc3)nnc2c2[nH]cnc21` [Compound 31, 6,9-Dihydro-6-n-propyl-3-(4-pyridyl)-5H-1,2,4-triazolo[3,4-i]purin-5-one], the response vs control in vivo at 25 mg/kg in data set [1] (setting [7]) worked out at 166%; in data set [1] (setting [8]), 118%; in data set [1] (setting [9]), 196%; in data set [1] (setting [10]), 191%. In addition, the minimal effective dose in data set [5] worked out at 25 mg/kg. This molecule yielded an MLD in data set [2] above 300 mg/kg. Further, the IC50 in data set [3] amounted to 11 µM. Also, in data set [4] (50 mg/kg orally), the “Experimental asthma Collapse time” value worked out at 512 ± 52 s.
Regarding `CCCCn1c(=O)n2c(-c3ccncc3)nnc2c2[nH]cnc21` [Compound 38, 6-n-Butyl-6,9-dihydro-3-(4-pyridyl)-5H-1,2,4-triazolo-[3,4-i]purin-5-one], the response vs control in vivo at 25 mg/kg was determined as 163% in data set [1] (setting [7]), 180% in data set [1] (setting [8]), 293% in data set [1] (setting [9]) and 353% in data set [1] (setting [10]). In addition, in data set [5], the minimal effective dose turned out to be 25 mg/kg. The molecule also came in with an MLD in data set [2] above 300 mg/kg. Moreover, the IC50 in data set [3] was above 40 µM. For the same molecule, the “Experimental asthma Collapse time” value in data set [4] (50 mg/kg orally) came out at 401 ± 78 s.
For `CCCCn1c(=O)n2c(=O)[nH]nc2c2c1ncn2C` [Compound 51, 6-n-Butyl-9-methyl-2,5,6,9-tetrahydro-3H-1,2,4-triazolo[3,4-i]purin-3,5-dione], the response vs control in vivo at 25 mg/kg in data set [1] (setting [7]) amounted to 100%; in data set [1] (setting [8]) it was 152%; in data set [1] (setting [9]), 152%; in data set [1] (setting [10]) it was 200%. Besides, the “Latency of test trial” value in data set [6] (0.625 mg/kg orally 60 minutes before acquisition trial) was 37.0 ± 11.2 s; in data set [6] (2.5 mg/kg orally 60 minutes before acquisition trial), 69.5 ± 16.6 s; in data set [6] (10 mg/kg orally 60 minutes before acquisition trial), 139.9 ± 45.1 s; in data set [6] (40 mg/kg orally 60 minutes before acquisition trial), 166.3 ± 49.9 s. In data set [2], the MLD is on record as above 300 mg/kg.
As to `Cn1c(=O)c2[nH]cnc2n(C)c1=O` [Theophylline, reference compound], the minimal effective dose in data set [5] was found to be 100 mg/kg. In data set [3], the IC50 was 23 µM. Moreover, the “Experimental asthma Collapse time” value in data set [4] (50 mg/kg orally) is 414 ± 47 s.
